# According to patent US20020010186A1, “Dihydropyrimidines and uses thereof” (Synaptic Pharmaceutical Corporation, priority 1996, published 2002):
# Structures can show the parent of a compound that is named as a salt.
# Assays:
# human α1D receptor = target: T1, human α1D receptor (Homo sapiens, UniProt P25100); test: Radioligand binding assay ([3H]prazosin) at cloned human α1D adrenergic receptor; details: membranes of LM(tk-) cells, [3H]prazosin 0.5 nM; for Ki: read-out: hα1d pKi (converted)
# T1 sequence (P25100 1-572): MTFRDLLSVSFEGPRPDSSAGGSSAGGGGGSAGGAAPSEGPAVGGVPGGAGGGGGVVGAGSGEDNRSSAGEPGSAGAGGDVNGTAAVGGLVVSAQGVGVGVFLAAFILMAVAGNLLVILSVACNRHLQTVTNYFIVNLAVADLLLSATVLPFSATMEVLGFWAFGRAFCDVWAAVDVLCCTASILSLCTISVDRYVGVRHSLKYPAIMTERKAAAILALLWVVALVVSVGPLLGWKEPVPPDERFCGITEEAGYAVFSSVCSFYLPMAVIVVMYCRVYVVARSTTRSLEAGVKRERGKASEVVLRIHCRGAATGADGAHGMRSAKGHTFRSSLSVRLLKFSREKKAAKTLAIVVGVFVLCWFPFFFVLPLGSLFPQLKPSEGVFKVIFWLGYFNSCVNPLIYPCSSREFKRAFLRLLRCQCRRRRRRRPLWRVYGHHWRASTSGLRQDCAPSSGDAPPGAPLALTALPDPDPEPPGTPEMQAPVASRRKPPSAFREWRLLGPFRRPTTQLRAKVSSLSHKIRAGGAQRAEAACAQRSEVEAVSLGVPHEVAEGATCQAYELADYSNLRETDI
# Protocol: (§1) These cell lines were prepared by transfecting the cloned cDNA or cloned genomic DNA or constructs containing both genomic DNA and cDNA encoding the human u-adrenergic receptors as follows:
# The cells were grown, in a controlled environment ([…]., 5% CO2), as monolayers in Dulbecco's modified Eagle's Medium (GIBCO, Grand Island, N.Y.) containing 25 mM glucose and supplemented with 10% bovine calf serum, 100 units/ml penicillin g, and 100 μg/ml streptomycin sulfate.
# (§2) The construct involved ligating three partial overlapping fragments: a 5′ 0.6 kb HincII genomic clone, a central 1.8 EcoRI hippocampal cDNA clone, and a 3′ 0.6Kb PstI genomic clone. The hippocampal cDNA fragment overlaps with the 5′ and 3′ genomic clones so that the HincII and PstI sites at the 5′ and 3′ ends of the cDNA clone, respectively, were utilized for ligation. This full-length clone was cloned into the KpnI site of the expression vector, using the 5′ and 3′ KpnI sites of the fragment, derived from vector (i.e., pBluescript) and 3′-untranslated sequences, respectively. Stable cell lines were selected as described above. […] Radioligand Binding Assays: Transfected cells from culture flasks were scraped into 5 ml of 5 mM Tris-HCl, 5 mM EDTA, pH 7.5, and lysed by sonication. The cell lysates were centrifuged at 1000 rpm for 5 min at 4° C., and the supernatant was centrifuged at 30,000×g for 20 min at 4° C. The pellet was suspended in 50 mM Tris-HCl, 1 mM MgCl2, and 0.1% ascorbic acid at pH 7.5. Binding of the al antagonist [^3H]prazosin (0.5 nM, specific activity 76.2 Ci/mmol) to membrane preparations of LM(tk-) cells was done in a final volume of 0.25 ml and incubated at 37° C. for 20 min. Nonspecific binding was determined in the presence of 10 μM phentolamine. The reaction was stopped by filtration through GF/B filters using a cell harvester.
# human α1A receptor = target: T2, human α1A receptor (Homo sapiens, UniProt P35348); test: Radioligand binding assay ([3H]prazosin) at cloned human α1A adrenergic receptor; details: membranes of LM(tk-) cells, [3H]prazosin 0.5 nM; for Ki: read-out: hα1a pKi (converted)
# T2 sequence (P35348 1-466): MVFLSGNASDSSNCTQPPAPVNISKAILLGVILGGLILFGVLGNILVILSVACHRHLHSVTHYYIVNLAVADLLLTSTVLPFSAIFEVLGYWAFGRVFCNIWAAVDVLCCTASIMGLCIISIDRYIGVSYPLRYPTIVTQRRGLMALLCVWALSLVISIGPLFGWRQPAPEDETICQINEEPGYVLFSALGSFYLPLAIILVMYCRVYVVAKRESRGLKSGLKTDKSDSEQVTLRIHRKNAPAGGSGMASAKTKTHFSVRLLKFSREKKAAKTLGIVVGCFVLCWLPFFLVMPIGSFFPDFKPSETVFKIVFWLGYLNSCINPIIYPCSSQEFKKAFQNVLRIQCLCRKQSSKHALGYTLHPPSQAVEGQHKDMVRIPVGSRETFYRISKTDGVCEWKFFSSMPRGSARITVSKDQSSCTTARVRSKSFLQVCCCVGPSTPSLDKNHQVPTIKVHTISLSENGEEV
# Protocol: as §1, §2
# human α1B receptor = target: T3, human α1B receptor (Homo sapiens, UniProt P35368); test: Radioligand binding assay ([3H]prazosin) at cloned human α1B adrenergic receptor; details: membranes of LM(tk-) cells, [3H]prazosin 0.5 nM; for Ki: read-out: hα1b pKi (converted)
# T3 sequence (P35368 1-520): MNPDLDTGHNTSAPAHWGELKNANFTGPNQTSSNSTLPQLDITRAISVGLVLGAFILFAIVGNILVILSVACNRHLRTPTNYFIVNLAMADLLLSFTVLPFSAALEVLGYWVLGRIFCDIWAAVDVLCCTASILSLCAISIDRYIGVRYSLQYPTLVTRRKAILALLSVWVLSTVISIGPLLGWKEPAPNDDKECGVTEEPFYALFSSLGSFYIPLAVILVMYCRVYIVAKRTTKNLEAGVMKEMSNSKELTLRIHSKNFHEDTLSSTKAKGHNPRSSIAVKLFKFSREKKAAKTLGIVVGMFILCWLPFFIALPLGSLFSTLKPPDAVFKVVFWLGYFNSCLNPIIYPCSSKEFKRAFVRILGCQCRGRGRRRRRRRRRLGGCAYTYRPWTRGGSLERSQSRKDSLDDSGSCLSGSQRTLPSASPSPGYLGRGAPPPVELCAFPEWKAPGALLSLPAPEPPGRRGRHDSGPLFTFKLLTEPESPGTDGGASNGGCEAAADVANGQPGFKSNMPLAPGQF
# Protocol: as §1
# The construct involved ligating the full-length containing EcoRI brainstem cDNA fragment from λ ZapII into the expression vector. Stable cell lines were selected as described above.
# as §2
smiles,measurement,setting,value
COC(=O)N1C(C)=NC(C)=C(C(=O)NCCCN2CCC(C(=O)OC)(c3ccccc3)CC2)C1c1ccc(F)c(F)c1 (centres unmarked),melting point,,55 to 57 °C
COCN1C(C)=NC(C)=C(C(=O)NCCCN2CCC(C(=O)OC)(c3ccccc3)CC2)C1c1ccc(F)c(F)c1 (centres unmarked),melting point,,53 to 57 °C
COCC1=C(C(=O)OC)C(c2ccc(F)c(F)c2)N(C(=O)NCCCN2CCC(c3ccccc3)(c3cccs3)CC2)C(=O)N1 (centres unmarked),melting point,,157 to 159 °C
COCC1=C(C(=O)OC)C(c2ccc(F)c(F)c2)N(C(=O)NCCCN2CCC(c3ccccc3)(c3ccco3)CC2)C(=O)N1 (centres unmarked),melting point,,153 to 155 °C
COCC1=NC(C)=C(C(=O)OC)C(c2ccc(F)c(F)c2)N1CCCCCN1CCC(c2ccc(C)cc2)(c2ccccc2C)CC1 (centres unmarked) (as salt: HCl),melting point,,137 to 140 °C
"COC(=O)C1=C(C)N=C(C)N(CCCCCN2CCC(C(=O)OC)(c3ccccc3)CC2)C1c1ccc(F)c(F)c1 (centres unmarked) (as salt: HCl) [Example 17, 6-(3,4-Difluorophenyl)-1,6-dihydro-5-methoxycarbonyl-1-(5-(4-methoxycarbonyl-4-phenylpiperidin-1-yl)-pentyl)-2,4-dimethylpyrimidine]",melting point,,170 to 176 °C
"COC(=O)C1=C(C)N=C(C)N(CCCCCNCCCc2ccccc2)C1c1ccc(F)c(F)c1 (centres unmarked) (as salt: HCl) [Example 55, 6-(3,4-Difluorophenyl)-1,6-dihydro-5-methoxycarbonyl-2,4-dimethyl-1-(5-(3-phenylpropylamino)pentyl)-pyrimidine]",melting point,,95 to 97 °C
"COC(=O)C1=C(C)NC(=O)N(C(=O)NCCCN2CCC(c3ccccn3)CC2)C1c1ccc(F)c(F)c1 (centres unmarked) (as salt: hydrochloride) [Example 15, 6-(3,4-Difluorophenyl)-5-methoxycarbonyl-4-methyl-2-oxo-1-{N-[4-(2-pyridyl)-piperidine-1-yl]propyl}carboxamido-1,2,3,6-tetrahydropyrimidine Dihydrochloride]",melting point,,170 to 174 °C
"COC(=O)C1=C(C)N=C(C)N(CCCC(O)CN2CCC(c3ccccn3)CC2)C1c1ccc(F)c(F)c1 (single isomer, unassigned; (+)) (as salt: HCl) [Example 56, (+)-6-(3,4-Difluorophenyl)-1,6-dihydro-1-(4-hydroxy-5-(4-(2-pyridyl)piperidin-1-yl)pentyl)-5-methoxycarbonyl-2,4-dimethylpyrimidine]",melting point,,163 to 165 °C
"CCC1=C(C(N)=O)C(c2ccc(F)c(F)c2)N(C(=O)NCCCN2CCC(C(=O)OC)(c3ccccc3)CC2)C(=O)N1 (single isomer, unassigned; (+)) [Example 14, (+)-5-Carboxamido-6-(3,4-difluorophenyl)-4-ethyl-1-{N-[3-(4-methoxycarbonyl-4-phenylpiperidin-1-yl)propyl]}carboxamido-2-oxo-1,2,3,6-tetrhydropyrimidine]",hα1d pKi,human α1D receptor,6.46
same,hα1a pKi,human α1A receptor,9.68
same,hα1b pKi,human α1B receptor,6.59
"COC(=O)C1=C(C)NC(=O)N(C(=O)NCCCN2CCC(c3ccccn3)CC2)C1c1ccc(F)c(F)c1 (centres unmarked) [Example 15, 6-(3,4-Difluorophenyl)-5-methoxycarbonyl-4-methyl-2-oxo-1-{N-[4-(2-pyridyl)-piperidine-1-yl]propyl}carboxamido-1,2,3,6-tetrahydropyrimidine Dihydrochloride]",Ki,human α1D receptor,977 nM
same,Ki,human α1A receptor,0.389 nM
same,Ki,human α1B receptor,468 nM
"COC(=O)C1=C(C)NC(=O)N(C(=O)NCCCN2CCC(c3ccccn3)CC2)C1c1ccc2nonc2c1 (centres unmarked) [Example 16, 6-(3,4-Benzofurazan-5-yl)-5-methoxycarbonyl-4-methyl-2-oxo-1-{N-[4-(2-pyridyl)-piperidin-1-yl]propyl}carboxamido-1,2,3,6-tetrahydropyrimidine Dihydrochloride]",Ki,human α1D receptor,575 nM
same,Ki,human α1A receptor,0.288 nM
same,Ki,human α1B receptor,427 nM
"COC(=O)C1=C(C)N=C(C)N(CCCCCN2CCC(C(=O)OC)(c3ccccc3)CC2)C1c1ccc(F)c(F)c1 (centres unmarked) [Example 17, 6-(3,4-Difluorophenyl)-1,6-dihydro-5-methoxycarbonyl-1-(5-(4-methoxycarbonyl-4-phenylpiperidin-1-yl)-pentyl)-2,4-dimethylpyrimidine]",hα1d pKi,human α1D receptor,6.17
same,hα1b pKi,human α1B receptor,6.32
